Where “and” joins values, the source holds several entries; their conditions need not be identical. Equal values may be shown once. Entries after “also recorded” stand apart in the source; their conditions may differ.
Columns and labels:
[1] = target: T1, H. lacusprofundi β-galactosidase enzyme (Halorubrum lacusprofundi, UniProt B9LW38); experiment: Steady-state kinetic inhibition of purified β-galactosidase (ONPG); format: biochemical; details: for type of inhibition: Lineweaver-Burk / Dixon plots
T1 construct: made in house; host or cells: Halobacterium sp; NRC-1 (pRK42)
T1 sequence (B9LW38 1-700): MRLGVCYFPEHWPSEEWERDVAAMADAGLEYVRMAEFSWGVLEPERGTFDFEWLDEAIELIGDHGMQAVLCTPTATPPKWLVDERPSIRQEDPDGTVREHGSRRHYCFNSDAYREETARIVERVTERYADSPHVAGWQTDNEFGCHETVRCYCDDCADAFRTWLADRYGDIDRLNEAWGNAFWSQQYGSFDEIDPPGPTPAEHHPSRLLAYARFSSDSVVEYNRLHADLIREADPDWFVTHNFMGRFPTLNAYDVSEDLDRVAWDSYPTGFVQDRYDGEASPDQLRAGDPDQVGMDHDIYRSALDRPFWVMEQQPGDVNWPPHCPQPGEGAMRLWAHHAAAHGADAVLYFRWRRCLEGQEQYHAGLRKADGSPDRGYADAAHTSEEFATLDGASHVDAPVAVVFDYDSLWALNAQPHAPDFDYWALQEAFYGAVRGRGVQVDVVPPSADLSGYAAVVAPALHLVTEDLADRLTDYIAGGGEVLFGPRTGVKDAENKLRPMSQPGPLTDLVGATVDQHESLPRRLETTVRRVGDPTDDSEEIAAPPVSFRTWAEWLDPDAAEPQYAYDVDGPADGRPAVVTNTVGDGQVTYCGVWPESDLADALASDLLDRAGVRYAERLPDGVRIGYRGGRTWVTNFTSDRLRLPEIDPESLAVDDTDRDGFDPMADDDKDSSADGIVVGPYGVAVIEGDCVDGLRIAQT
Method: To purify β-galactosidase, cultures of Halobacterium sp. NRC-1 (pRK42) (Karan et al., [2013]) were grown to late-log phase (OD600 ∼ 1.0), harvested, resuspended in binding buffer (20 mM phosphate buffer, 2.0 M NaCl, 10% (v/v) glycerol, 30 mM imidazole, pH 7.4), and lysed by sonication (Model 50 Sonic Dismembrator, ThermoFisher Scientific, Waltham, MA). Cell debris was removed by centrifugation (25,000g, 4°C, 10 min) in an Eppendorf 5417C centrifuge, and resulting crude extract was filtered through a 0.2 μm polyethersulfone filter (ThermoFisher Scientific, Waltham, MA). The proteins were purified by using Nickel HisTrap HP Columns (GE Healthcare, Chicago, IL), equilibrated, and washed with binding buffer, and eluted sequentially with 2 M NaCl, 100 mM phosphate buffer (pH 7.4) supplemented with 40, 80, 100, 200, and 500 mM imidazole.
Column fractions were tested for activity with o-nitrophenyl-β-D-galactopyranoside (ONPG, ThermoFisher Scientific, Waltham, MA). Active fractions were combined and protein concentration estimated by absorption at 280 nm with a Shimadzu UV-1601 spectrophotometer (Shimadzu Corporation, Kyoto, Japan). To confirm purity, the protein was analyzed by 10% SDS-PAGE followed by staining with Coomassie Blue (Millipore Sigma, Billerica, MA).
The inhibitory properties of Mg^2+ and ClO4^− ions on the β-galactosidase enzyme were tested through steady-state kinetics with a Shimadzu UV-1601 spectrophotometer. The assay solution containing 10 μg/mL enzyme was preincubated at 50°C followed by addition of ONPG at three different concentrations (1, 2.5, and 5 mM), and absorption was recorded at 420 nm. V0, the Michaelis constant (Km), as well as Vmax, were determined with UV Probe ver. 4.23 software (Shimadzu Corporation, Kyoto, Japan). kcat was calculated from given values of Km and Vmax. After the kinetic experiments were recorded, Lineweaver-Burk plots for each concentration of the inhibitory ion were used to determine whether the inhibition was competitive or noncompetitive. KI was determined by using Dixon plots, which use the reciprocal velocity of multiple steady-state kinetic experiments at multiple substrate and inhibitor concentrations to extrapolate the concentration of inhibitor that results in half-maximal inhibition (Yoshino and Murakami, [2009]). All experiments were run in triplicate and averages used for kinetic analysis.

methanogens = test system: methanogens; set-up: method as in Kral et al., 2004; details: grown on Mars soil simulant; ref Kral et al., 2004; cited from earlier work
Halorubrum lacusprofundi [2] = experiment: Aerobic growth rate of Halorubrum lacusprofundi with added salts; format: cell-based
Method: (§1) For aerobic growth, cultures of halophiles were shaken in the light in test tubes at 42°C in CM^+ for Halobacterium sp. NRC-1 and at 37°C in ATCC 1682 media for H. lacusprofundi (Berquist et al., [2007]), adjusted to the desired concentration of NaClO4, MgCl2, and Mg(ClO4)2. For anaerobic growth, cultures were grown in the dark without shaking, essentially as described previously (Oren et al., [2014]). OD600 was recorded with a Spectronic 200 (ThermoFisher Scientific, Waltham, MA) test tube reader. Growth rates were calculated by using the slope of a line of regression calculated from early to mid-log phase.

Halobacterium sp. NRC-1 [3] = experiment: Aerobic growth rate of Halobacterium sp. NRC-1 with added salts; format: cell-based; details: Mg2+ added
Method: as §1

Halorubrum lacusprofundi [4] = experiment: Anaerobic growth assay of Halorubrum lacusprofundi; format: cell-based; details: 40 mM (0.04 M) perchlorate, dark, no oxygen, 8 days
Method: as §1

Halobacterium sp. NRC-1 [5] = experiment: Anaerobic growth assay of Halobacterium sp. NRC-1; format: cell-based; details: 40 mM NaClO4, dark, no oxygen, 8 days
Method: as §1

[6] = test system: Methanobacterium articum M2 VKM B-2372; set-up: method as in Shcherbakova et al., 2015; details: 9.8 mM NaClO4; ref Shcherbakova et al., 2015; cited from earlier work
[7] = test system: Methanobacterium veterum MK4 VKM B-2440; set-up: method as in Shcherbakova et al., 2015; details: 9.8 mM NaClO4; ref Shcherbakova et al., 2015; cited from earlier work
Methanosarcina sp. = test system: Methanosarcina sp.; set-up: method as in Shcherbakova et al., 2015; details: 9.8 mM NaClO4; ref Shcherbakova et al., 2015; cited from earlier work

SMILES: [O-][Cl+3]([O-])([O-])O [Mg(ClO4)2, magnesium perchlorate]
- type of inhibition [1]: mixed inhibitor; also recorded: mixed inhibition
- concentration up to which methanogens metabolize (methanogens): up to 0.06 M

SMILES: [Mg+2] [MgCl2, magnesium chloride]
- highest concentration at which a measurable growth rate was recorded (Halorubrum lacusprofundi [2]; ATCC 1682 medium): 1.4 M
- inhibition of growth at 1.2 M (Halorubrum lacusprofundi [2]; Halorubrum lacusprofundi, 1.2 M Mg2+ (MgCl2 added), read-out: decrease in growth rate): 40%
- inhibition of growth at 1.4 M (Halorubrum lacusprofundi [2]; Halorubrum lacusprofundi, 1.4 M Mg2+ (MgCl2 added), read-out: decrease in growth rate): 80%
- concentration up to which a substantial growth rate is retained / no significantly deleterious effect (Halorubrum lacusprofundi [2]; MgCl2 added, listed as Mg^2+): 0.9 M and ~1 M
- concentration up to which no significantly deleterious effect on growth (Halobacterium sp. NRC-1 [3]): ~1 M
- inhibition at 250000 µM ([1]; 0.5 M Na+ replaced with 0.25 M Mg2+ using magnesium chloride, read-out: decrease in catalytic efficiency): 70%
- type of inhibition [1]: competitive inhibitor
- type of inhibition ([1]; listed as Mg^2+): competitive inhibition

SMILES: [O-][Cl+3]([O-])([O-])O [NaClO4, sodium perchlorate]
- anaerobic growth with perchlorate (Halorubrum lacusprofundi [4]): able to grow anaerobically
- anaerobic growth with perchlorate (Halobacterium sp. NRC-1 [5]): incapable of anaerobic growth
- type of inhibition ([1]; listed as perchlorate): very weak noncompetitive inhibitor
- type of inhibition ([1]; listed as perchlorate ions): noncompetitive inhibitor
- type of inhibition ([1]; listed as sodium perchlorate): noncompetitive inhibition
- protein precipitation (salting-out) ([1]; at the concentrations tested): no protein precipitation
- reduction in methanogenesis [6]: 80%
- reduction in methanogenesis [7]: 80%
- reduction in methanogenesis (Methanosarcina sp.): 80%

Reference: paper PMC5910040, “An Antarctic Extreme Halophile and Its Polyextremophilic Enzyme: Effects of Perchlorate Salts” (Astrobiology, 2018)
